Here are results for two compounds from patent publication US7387800B2, “Sesquiterpenoid derivatives having adipocyte differentiation inhibitory effect” (Meiji Dairies Corporation, priority 2001, dated 2008).

The test system of this test is Mouse adipocyte precursors (3T3-L1). The test is described as follows: Inhibition of insulin-induced adipocyte differentiation, acetic acid (14C-CH3COOH) incorporation activity as index. It is filed as cell-based. The note with it: 3T3-L1 differentiation into adipocytes; compound added with insulin; FIG. 4. The method, then:
Whether Calea extract solution has an inhibitory activity on adipocyte differentiation induced by the addition of insulin was investigated. First, the aerial portion of Calea (170 g) was ground, and extracted by heated reflux using acetone (24 hours×2 times) to produce Calea extract solution. The extracted solution was filtered, and then concentrated under reduced pressure to yield a concentrated extract. Mouse adipocyte precursors (3T3-L1) obtained from Human Science Research Resources Bank was used as the adipocyte in the present experiment. Normal successive cultivation was performed using Dulbecco's modified Eagle MEM medium containing 10% calf serum (CS) at 37° C. in the presence of 5% CO2. […]
In the system where acetic acid incorporation activity was used as an index, first the cells were placed into a 24-well plate at a density of 4.2×10^4 cell/well. […] Using a liquid scintillation counter, radioactivity of the isopropanol fraction (adipose component) was measured. […] Then, protein quantification was performed according to the Bradford dye-binding method. […]

With `C=C(C)C(=O)O[C@H]1[C@H]2C(=C)C(=O)O[C@@H]2C[C@@H](C)[C@@H]2O[C@@H]2C(=O)[C@@](C)(O)[C@@H]1OC(=O)C(=C)C` [compound 6], the “incorporation inhibitory activity (acetic acid incorporation), result in words” value was “high incorporation inhibitory activity”.
Regarding `C=C(C)C(=O)O[C@H]1[C@H]2C(=C)C(=O)O[C@@H]2C[C@@H](C)/C=C\C(=O)[C@@](C)(O)[C@@H]1OC(=O)C(=C)C` [compound 11], the “incorporation inhibitory activity (acetic acid incorporation), result in words” value is “high incorporation inhibitory activity”.
